Results reported in patent publication EP0256909B1, “N,N-bis-(4-fluorophenyl) carbamoyl acetohydroxamic acid and pharmaceutical composition containing it” (priority 1986, dated 1988).
Entries after “also recorded” stand apart in the source; their conditions may differ.

Columns and labels:
[1] = Solubility of the powder in solvents; type: physicochemical
souris [2] = assay: Global behaviour and reactivities, mouse; type: in vivo
Method: (§1) Des lots de 3 animaux sont observés avant, puis 15 min, 30 min, 1 h, 2 h, 3 h et 24 h après l'administration de CRL 41131.

rat [3] = assay: Global behaviour and reactivities, rat; type: in vivo
Method: as §1

rat [4] = assay: Search for stereotyped movements; type: in vivo; settings: for mouvements stéréotypés (cotes): 22 h 30 min after administration, scored 0 to 3
Method: (§2) Le CRL 41131, en suspension dans une solution de gomme arabique à 5%, a été administré par voie intrapéritonéale sous un volume de 20 ml/kg chez la souris (mâle, NMRI, Evic Ceba) et de 5 ml/kg chez le rat (mâle, CD1, Sprague Dawley, Charles River).

souris [5] = assay: Interaction with apomorphine, mouse; type: in vivo; settings: compound i.p. 30 min before s.c. apomorphine 1 or 16 mg/kg
Method: as §2
Des lots de 6 souris reçoivent le CRL 41 131 30 min avant l'injection sous-cutanée d'apomorphine, à la dose de 1 ou 16 mg/kg. • a) Apomorphine 1 mg/kg • b) Apomorphine 16 ma/ka

rat [6] = assay: Interaction with apomorphine, rat; type: in vivo; settings: 64 and above all 256 mg/kg i.p., 30 min before s.c. apomorphine 0,5 mg/kg
Method: as §2
Le CRL 41131 est administré à des lots de 6 rats 30 min avant l'injection sous-cutanée de 0,5 mg/kg d'apomorphine.

rat [7] = assay: Interaction with amphetamine; type: in vivo
souris [8] = assay: Interaction with reserpine; type: in vivo; settings: 128 et 512 mg/kg i.p., mouse, 4 h after reserpine 2,5 mg/kg i.p.
Method: Quatre heures après l'injection intrapéritonéale de 2,5 mg/kg de réserpine, des lots de 6 souris reçoivent le CRL 41131.

souris [9] = assay: Interaction with oxotremorine; type: in vivo; settings: mouse, oxotremorine 0,5 mg/kg i.p.
Method: Le CRL 41131 est administré à des lots de 6 souris 30 min avant l'injection intrapéritonéale de 0,5 mg/kg d'oxotrémorine.

souris [10] = assay: Four plates test; type: in vivo; settings: mouse, 30 min after i.p. administration
Method: as §2
Le test est pratiqué sur des lots de 10 souris, 30 min après l'administration de CRL 41131.

souris [11] = assay: Electroshock test; type: in vivo
souris [12] = assay: Intergroup aggressiveness; type: in vivo
Method: Après avoir séjourné pendant 3 semaines dans chacune des moitiés d'une cage séparées par une cloison opaque, des groupes de 3 souris reçoivent le CRL 41131. Trente minutes plus tard, les deux groupes d'une même cage sont réunis par retrait de la cloison et on note le nombre de combats qui surviennent en 10 min.

souris [13] = assay: Motility reduced by habituation to the enclosure; type: in vivo; settings: 32, 128 et 512 mg/kg i.p.
Method: Après 18 h de séjour dans les actimètres, les souris (6 par dose, 12 témoins) reçoivent le CRL 41131. Elles sont aussitôt replacées dans leurs enceintes respectives et, 30 min plus tard, on enregistre leur motilité pendant 30 min.

souris [14] = assay: Motility reduced by hypoxic aggression; type: in vivo; settings: 8, 32, above all 128 et 512 mg/kg i.p., after acute hypobaric anoxia
Method: Trente minutes après avoir reçu le CRL 41131, les souris (10 par dose, 20 témoins) sont soumises à une anoxie hypobare aiguë (dépression de 600 mmHg en 90 s, détente de 45 s), puis elles sont placées en actimètre où leur motilité est enregistrée pendant 10 min.

souris [15] = assay: Interaction with barbital; type: in vivo; settings: 128 et 512 mg/kg, barbital 220 mg/kg i.p.
Method: Trente minutes après l'administration de CRL 41131, des lots de 10 souris reçoivent une injection intrapéritonéale de barbital (220 mg/kg).

souris [16] = assay: Behavioural despair (forced immersion); type: in vivo; settings: 32, 128, 512 mg/kg i.p., 2nd to 6th minute
Excerpt: Trente min après avoir reçu le CRL 41131, des lots de 6 souris (mâles, CD1, Charles River) sont placés dans un bécher rempli d'eau sur une hauteur de 6 cm. On note la durée totale d'immobilité entre la deuxième et la sixième minute suivant l'immersion.

in vivo = settings: mouse, in vivo, ip; for LD50 at 48 h: 48 h after administration; for LD50 at 72 h: 72 h after administration; for LD50 at 24 h: dose létale 50% (DL50), 24 h after administration; for selectivity ratio: rapport, LD50 ratio isolated/grouped mice (formula not readable)
Method: as §2
(§3) Aussitôt après l'administration de CRL 41131, les souris groupées par lots de 10 sont placées dans des boîtes en Plexiglass (20 x 10 x 10 cm).
(§4) On note le nombre d'animaux morts, toutes les heures pendant 4 h et après 24, 48 et 72 h.
(§5) La toxicité du CRL 41131 est déterminée dans les mêmes conditions sur des lots de souris placées à raison d'une par boîte.

souris [17] = assay: in vivo; settings: 24 h after administration
Method: as §2, §3, §4, §5

homme = assay: Use as stimulant antidepressant in man; type: in vivo; settings: 2 to 3 tablets of 150 mg per day, oral route
[18] = comparison section, no dose given

## O=C(CC(=O)N(c1ccc(F)cc1)c1ccc(F)cc1)NO [CRL 41131, acide N,N-bis-(4-fluorophényl) carbamoylacétohydroxamique]
[1]; alcohols, acetone, ethyl acetate
  solubilité dans les alcools, l'acétone, l'acétate d'éthyle: soluble
[1]; ether
  solubilité dans l'éther: peu soluble
[1]; isopropyl ether
  solubilité dans l'éther isopropylique: insoluble
[1]; water
  solubilité dans l'eau: insoluble
Souris [2]; 128 mg/kg i.p.
  Comportement global: excitation: excitation (1/3) pendant 1 h
Souris [2]; 512 mg/kg i.p.
  Comportement global: excitation: excitation (1/3 pendant 1 h, 2/3 entre 2 et 3 h, et 3/3 à 24 h)
Souris [2]; 512 mg/kg i.p., 24 h
  Comportement global et réactivités à 24 h: mouvements d'apparence stéréotypée, augmentation de la réaction de peur et de la réactivité au toucher à 24 h
Souris [2]; 8 et 32 mg/kg i.p.
  Comportement, réactivités, variations du diamètre pupillaire et de la température: comparables à ceux du lot témoin
Rat [3]; 256 mg/kg i.p.
  comportement: excitation, réaction de peur: excitation et augmentation de la réaction de peur (entre 2 h et 24 h)
Rat [3]; 256 mg/kg i.p., 24 h
  stéréotypies, réactivité au toucher: stéréotypies, augmentation de la réactivité au toucher en 24 h
Rat [3]; 4, 16 et 64 mg/kg i.p.
  comportement et réactivités: pas de modification nette du comportement et des réactivités
Rat [4]; 64 mg/kg i.p.
  mouvements stéréotypés (cotes): 1
Rat [4]; 128 mg/kg i.p.
  mouvements stéréotypés (cotes): 2
Rat [4]; 256 mg/kg i.p.
  mouvements stéréotypés (cotes): 3
Rat [4]; 128 et 256 mg/kg i.p.
  mouvements stéréotypés persistant pendant: > 30 h
Rat [4]; from the lowest dose used, 64 mg/kg i.p.
  mouvements stéréotypés: provoque l'apparition de mouvements stéréotypés
Souris [5]
  action hypothermisante induite par l'apomorphine: ne s'oppose pas
  comportements de verticalisation et de stéréotypies: ne sont pas modifiés
Rat [6]
  stéréotypies induites par l'apomorphine: potentialisation
Rat [7]; 64 and above all 256 mg/kg i.p., rat, 30 min before amphetamine 2 mg/kg i.p.
  stéréotypies amphétaminiques: potentialisation importante
Rat [7]; [18]
  test à l'amphétamine: stéréotypies du rat: potentialise ces stéréotypies
Souris [8]
  hypothermie réserpinique: s'oppose tardivement (24 h)
  ptôsis réserpinique: s'oppose tardivement (24 h)
Souris [9]
  action hypothermisante de l'oxotrémorine (température): n'a pas d'effet; also recorded: ne modifie pas
  intensité des tremblements provoqués par l'oxotrémorine: n'a pas d'effet; also recorded: ne modifie pas
  signes de stimulation cholinergique périphérique dus à l'oxotrémorine: ne modifie pas
Souris [10]
  nombre de passages punis: n'entraîne pas d'augmentation nette du nombre de passages punis
Souris [11]; 32, 128 et 512 mg/kg i.p., mouse, 30 min after administration
  effets létaux de l'électrochoc: aggrave modérément les effets létaux de l'électrochoc
Souris [11]; [18]
  test à l'électrochoc: aggrave les effets létaux de l'électrochoc
Souris [12]; 512 mg/kg i.p. (highest dose used), 30 min before, fights in 10 min
  nombre de combats: diminue nettement le nombre de combats
Souris [12]; 128 et 512 mg/kg, comparison section
  agressivité intergroupe des souris: diminution
Souris [13]
  activité motrice chez la souris habituée à son enceinte: reprise nette de l'activité motrice
Souris [14]
  récupération motrice: amélioration de la récupération motrice
Souris [15]
  durée du sommeil barbiturique: diminue encore le sommeil; also recorded: diminue la durée du sommeil barbiturique
Souris [16]
  durée de l'immobilité: diminue la durée de l'immobilité
In vivo; DL50, grouped mice
  LD50 at 48 h: ~480 mg/kg
  LD50 at 72 h: ~370 mg/kg
In vivo; DL50, isolated mice
  LD50 at 48 h: ~300 mg/kg
  LD50 at 72 h: ~1100 mg/kg
In vivo; grouped mice
  LD50 at 24 h: ~700 mg/kg
In vivo; isolated mice
  LD50 at 24 h: ~500 mg/kg
In vivo; 48 h
  selectivity ratio: 2.7
In vivo; 72 h
  selectivity ratio: 2.97
Souris [17]
  toxicité chez les souris groupées par rapport aux souris isolées: modérément plus toxique chez les souris groupées
homme
  résultats comme antidépresseur stimulant chez l'homme: bons résultats comme antidépresseur stimulant
